Series [1] relates to super-telomerase cells (TERC-null 293T cells transfected with TERT and TERC). Put plainly: TRF Southern blot telomere synthesis in super-telomerase cells. The following applies: treatment for 30 hours. The class given is cell-based, human. The protocol:
(§1) Terminal Restriction Fragment Length Analysis: genomic DNA was isolated from cells using the Invitrogen Purelink Genomic DNA mini kit (Invitrogen). 1-3 μg of gDNA was digested with RsaI and HinfI for 2-3 hrs at 37° C. and loaded onto a 0.6% agarose gel followed by Southern blotting using the Telotaggg Telomere Length Assay Kit (Roche). Quantification was performed using the WALTER webtool.
dT supplementation increases levels of dTTP and can reduce dCTP levels, leading to replication stress at high doses. Because replication stress signaling has been implicated in telomerase biology we asked whether replication stress induction explained the telomere length increases seen with dT treatment. We first tested whether telomere elongation is a universal response to replication stress-inducing compounds. […] However, cytotoxicity limited our ability to apply higher doses of replication stress-inducing compounds for time periods long enough to study telomere length changes. […] Using this system, we next asked how high-dose treatment with replication stress-inducing agents such as aphidicolin, hydroxyurea, and the TYMS inhibitor 5FU influence telomere synthesis compared to dT.

Series [2] concerns pCHK1-S345 and pRPA32-S33. Put plainly: Immunoblot of replication stress signaling in super-telomerase cells. The format is cell-based, human. Conditions: highest doses, 30 hours. On the technique in general: A western blot detects proteins with antibodies after separation by electrophoresis.
Series [3] relates to T-free super-telomerase expressing cells (293T TERC-null). Put plainly: Slot blot of GGAAAG repeat content in cellular DNA. The format is cell-based, human. The following applies: 5FU (10 μM) or HU (500 μM). The protocol:
Slot blotting: slot blotting was performed as described with minor modifications. Briefly, DNA concentration was normalized to 20 ng/μl using a nanodrop spectrophotometer. 3.3 μl of DNA was added to 16.5 μl of denaturation solution (0.5 M NaOH, 1.5 M NaCl) and heated to 55° C. for 30 minutes. 495 μl of neutralization solution (0.5 M Tris-HCl, 1.5 M NaCl) was added to denatured DNA and 156 μl of this solution was added in triplicate to different slots on a Bio-Dot SF Apparatus (Bio-Rad) and blotted onto Hybond N+ Membrane (Cytivia). Membrane preparation and washing was performed as described. For samples with paired GGTTAG and GGAAAG slot blots, the above recipe was doubled, and 156 μl was loaded onto parallel membranes in triplicate on each membrane. After blotting, membranes were hybridized and detected as described above for TRF Southern blots using the probe indicated in the figure. Blots were analyzed using ImageJ. Statistical analysis was performed using Graphpad prism V9.1.0.

For another series, the system named is K562 cells. Put plainly: Terminal restriction fragment (TRF) Southern blot telomere length, K562 cells. The class given is cell-based, human. Conditions: K562 cells. How it is done:
(§2) Cell culture: K562 cells (ATCC) were grown in RPMI1 1640 (Gibco) media supplemented with 10% fetal bovine serum. 293T cells (ATCC) were grown in DMEM (Gibco) supplemented with 10% fetal bovine serum, and were subcultured using 0.05% trypsin (Gibco). iPSCs were derived, characterized and cultured as previously described. iPSCs were grown in Essential 8 Media (Life Technologies) supplemented with the ROCK inhibitor Y271632 (Stem Cell Technologies) at 10 μM on plates coated with hES qualitied Matrigel matrix (Corning) and were subcultured using Accutase (Stem Cell Technologies).
as §1

Another series deals with 293T cells. Put plainly: Terminal restriction fragment (TRF) Southern blot telomere length, 293T cells. The class given is cell-based, human. The protocol:
as §2, §1

The conditions of series [4]: at pH of about 7; cited from earlier work.
The subject of another series is telomere length. The series is described as follows: Telomere length with cytidine and uridine (FIG. 23). The class given is cell-based.
The conditions of series [5]: co-administration with dT; cited from earlier work.
Setting [6] is: 8 days, doses up to those maximally tolerated.
Where [7] appears, read: 10 days, doses up to those maximally tolerated.
[8] abbreviates: 100 μM of the indicated deoxynucleoside(s) for 8 days.
Setting [9] is: 100 μM of the indicated deoxynucleoside(s) for 9 days.
The mark [10] stands for this setting: baseline 16 μM dT, plus 100 μM additional dT or 1 mM dU, 10 days.

Consider eleven molecules from patent US20260248833A1, “PYRIMIDINE NUCLEOSIDE TREATMENTS” (The Children`s Medical Center Corporation, priority 2022, published 2026).

Entries after “also recorded” stand apart in the source; their conditions may differ.

As for `NC(=O)NO` [hydroxyurea, reference compound], in series [1], the “telomere repeat synthesis / telomere elongation by telomerase” value is “ablated telomere elongation by telomerase”. The replication stress signaling result in series [2] is recorded as “induced similar levels of replication stress signaling”. Moreover, in series [3], the “levels of GGAAAG repeats” value is recorded as “reduced levels of GGAAAG repeats”. For the same molecule, the telomere length entry is on record as “No changes were found in telomere length” with K562 cells (setting [6]) and “No changes were found in telomere length; also recorded: did not change telomere length after 10 days” in the series on 293T cells (setting [7]).

Regarding `O=C1NC(=NCc2cccs2)S/C1=C\c1ccc2ncccc2c1` [RO-3306, reference compound], the telomere length entry in the series on K562 cells (setting [6]) and with 293T cells (setting [7]) was “No changes were found in telomere length” each time.

For `Nc1nc2c(ncn2[C@H]2C[C@H](O)[C@@H](CO)O2)c(=O)[nH]1` [dG, deoxyguanosine, reference compound], the telomere length entry in the series with K562 cells (setting [8]) is “but not deoxyadenosine (dA) or deoxyguanosine (dG), rapidly and robustly increases telomere length”; with 293T cells (setting [9]), “but not deoxyadenosine (dA) or deoxyguanosine (dG), rapidly and robustly increases telomere length”.

As to `O=c1ccn([C@H]2C[C@H](O)[C@@H](CO)O2)c(=O)[nH]1` [dU, 1-((2R,4S,5R)-4-Hydroxy-5-(hydroxymethyl)tetrahydrofuran-2-yl)pyrimidine-2,4 (1H,3H)-dione], in series [4], the water solubility result is recorded as “about 5 mg/ml”. The “telomere length with baseline of 16 μM dT” value in the series with K562 cells (added dU, 10 days) is “increased telomere length”; in the series on 293T cells (added dU, 10 days), “increased telomere length”. Also, the “telomere lengthening in TYMS-knockout cells” value with K562 cells (setting [10]) and in the series with 293T cells (setting [10]) was “no longer able to promote telomere lengthening” each time. For the same molecule, in the series with 293T cells (10× the dT concentration), the “concentration giving telomere elongation to a degree similar to dT” value was found to be 1 mM. Also, the telomere length entry in the series with 293T cells (dU 1 mM, 10 days (FIG. 9)) is “elongate telomeres to a degree similar to dT”; in the series with 293T cells (dU 1 mM, 10 days (FIG. 9), listed as Deoxyuridine), “promotes telomere elongation”.

As for `Nc1nc2ncc(CNc3ccc(C(=O)N[C@@H](CCC(=O)O)C(=O)O)cc3)nc2c(=O)[nH]1` [folate, folic acid, reference compound], the telomere length result in the series on 293T cells (folate supplementation up to 1 mM, 10 days) is on record as “did not yield telomere elongation”; in the series with 293T cells (folate supplementation up to 1 mM, 10 days, listed as folic acid) it was “but not folic acid supplementation promotes telomere elongation”.

As for `Nc1ccn([C@@H]2O[C@H](CO)[C@@H](O)[C@H]2O)c(=O)n1` [cytidine, 4-amino-1-[(2R,3R,4S,5R)-3,4-dihydroxy-5-(hydroxymethyl)oxolan-2-yl]pyrimidin-2 (1H)-one], in the series on telomere length, the telomere length result was “increase telomere length”. Moreover, in series [5], the “toxicity caused by dT” value is given as “reduce toxicity caused by dT”.

In the case of `C[C@@]1(CO)[C@H](O)CC[C@@]2(C)[C@H]1CC[C@H]1C[C@@H]3C[C@@]12CC[C@]3(O)CO` [aphidicolin, reference compound], the “telomere repeat synthesis / telomere elongation by telomerase” value in series [1] is “drove detectable increases in telomere length, albeit to a lesser extent than dT”. Moreover, the replication stress signaling entry in series [2] is recorded as “induced similar levels of replication stress signaling”. For the same molecule, in the series with 293T cells (setting [7]), the telomere length entry is on record as “telomere elongation after 10 days”.

For the molecule `Nc1ncnc2c1ncn2[C@H]1C[C@H](O)[C@@H](CO)O1` [dA, deoxyadenosine, reference compound], the telomere length result in the series with K562 cells (setting [8]) is “but not deoxyadenosine (dA) or deoxyguanosine (dG), rapidly and robustly increases telomere length”; in the series with 293T cells (setting [9]) it was “but not deoxyadenosine (dA) or deoxyguanosine (dG), rapidly and robustly increases telomere length”.

`O=c1ccn([C@@H]2O[C@H](CO)[C@@H](O)[C@H]2O)c(=O)[nH]1` [uridine, 1-[(2R,3R,4S,5R)-3,4-Dihydroxy-5-(hydroxymethyl)oxolan-2-yl]pyrimidine-2,4 (1H,3H)-dione]: in the series on telomere length, the telomere length entry was “increase telomere length”.

`O=c1[nH]cc(F)c(=O)[nH]1` [5FU, 5-fluorouracil, reference compound]: the “telomere repeat synthesis / telomere elongation by telomerase” value in series [1] is on record as “ablated telomere elongation by telomerase; also recorded: completely inhibited telomere elongation; also recorded: ablated telomere lengthening in super-telomerase cells”. Further, the replication stress signaling result in series [2] is “induced similar levels of replication stress signaling”. Besides, the “levels of GGAAAG repeats” value in series [3] is recorded as “reduced levels of GGAAAG repeats; also recorded: inhibited T-free telomerase activity”.

On to `Nc1ccn([C@H]2C[C@H](O)[C@@H](CO)O2)c(=O)n1` [dC, 4-azmino-1-[(2R,4S,5R)-4-hydroxy-5-(hydroxymethyl)oxolan-2-yl]pyrimidin-2 (1H)-one], for which the water solubility entry in series [4] is listed as “about 870 mg/mL”. Also, the “toxicity caused by dT” value in series [5] is “reduce toxicity caused by dT; also recorded: reduces toxicity of dT and improves cell growth compared to dT alone”.
